Measurements as given in paper PMC12008195 (Scientific Reports, 2025).

How the values were obtained:
[1] = tested on: HCT-116 (human colon cancer); conditions: read-out: IC50 HCT-116; MTT, 24-hour exposure; cited from earlier work
[2] = tested on: HepG-2 cells; assay: Cell cycle analysis, propidium iodide flow cytometry; format: cell-based, human; conditions: 3b at 6 µM
[3] = tested on: WI-38 (human lung fibroblasts); conditions: read-out: IC50 WI-38 human fibroblasts; MTT, normal non-cancer cells; cited from earlier work
[4] = tested on: Bcl-2; assay: RT-PCR gene expression of Bcl-2 in HepG-2 cells; format: cell-based, human; conditions: versus untreated cells
[5] = tested on: HepG-2 cells; assay: Annexin-V/propidium iodide staining assay; format: cell-based, human
[6] = tested on: MCF-7 (mammary gland breast cancer); conditions: read-out: IC50 MCF-7; MTT, 24-hour exposure; cited from earlier work
[7] = tested on: HepG2 (hepatocellular carcinoma); conditions: read-out: IC50 HepG-2; MTT, 24-hour exposure; cited from earlier work
[8] = cited from earlier work

For Cc1cc2c(cc1C)N[C@H](c1ccccc1)[C@@H](O)C(=O)N2 [Compound 3b, (3R,4R)−3-hydroxy-7,8-dimethyl-4-phenyl-1,3,4,5-tetrahydro-2 H-1,5-benzodiazepin-2-one], the IC50 [1] is listed as 9.18 µM, the “Increase of DNA content at G2/M phase compared to non-treated cells” value [2] is listed as 28% and the IC50 [3] is listed as 14 µM. The “Gene expression fold change Bcl-2” value [4] was 0.339 fold, the “Fold increase in the proportion of necrotic cells versus control” value [5] was 2.6 fold and the IC50 [6] was 7.86 µM. The IC50 [7] was 6.13 µM, the “Lipinski's rule of five” value ([8]; MW ≤ 500 Da, LogP < 5, nHBD ≤ 5, nHBA ≤ 10, TPSA < 140 Å2) was “satisfied” and the Predicted oral bioavailability ([8]; in silico studies) was “good”.
